{"source": "patent US20150257394A1", "about": "“TEA EXTRACTS AND USES IN PROMOTING PLANT GROWTH” (PLANT ACTIVITY LTD., priority 2012, published 2015)", "test_system": "wheat seeds", "test": "Effect of preservative on promotion of wheat seedling root growth by black tea extract (Example 10)", "type": "in vivo", "conditions": "1% solution of methyl paraben predissolved in hexalene glycol", "protocol": "To evaluate whether a preservative affects the benefits of black tea extracts on wheat germination and early root growth, Malawi black tea extracts and Kenya black tea extracts were prepared according to Example 1 and used to treat wheat seeds (0.6 ml/kg seed) in combination with a preservative (1% solution of methyl paraben that has been predissolved in hexalene glycol (30:1 ratio of hexalene glycol to methyl paraben)) or without the preservative substantially according to Example 2. Root system measurements were performed according to Example 6."}
{"smiles": "COC(=O)c1ccc(O)cc1", "note": "[methyl paraben]", "values": [{"measurement": "effect of preservative on the benefits of the black tea extracts", "result": "did not negatively affect"}]}
